# Source: publication PMC11062894, “Protein-based bandpass filters for controlling cellular signaling with chemical inputs” (Nature Chemical Biology, 2023)
# System: GEMS receptors with CBPvene (Bcl2–LD3 and Bcl2high variants), STAT3-driven SEAP in HEK293T cells
# Assay: GEMS SEAP reporter assay, CBPvene (Bcl2high, LD3-v and Bcl2-v variants) with venetoclax
# Assay type: cell-based
# [1] = Supp Fig 10b, Bcl2-v4, venetoclax 316 nM
# [2] = Supp Fig 10b, Bcl2-v4, venetoclax 1000 nM
# [3] = Supp Fig 10b, Bcl2-v4, venetoclax 3160 nM
# [4] = Supp Fig 10b, Bcl2-v4, venetoclax 10000 nM
# [5] = Supp Fig 10b, Bcl2-v5, venetoclax 1 nM
# [6] = Supp Fig 10b, Bcl2-v5, venetoclax 3.16 nM
# [7] = Supp Fig 10b, Bcl2-v5, venetoclax 10 nM
# [8] = Supp Fig 10b, Bcl2-v5, venetoclax 31.6 nM
# [9] = Supp Fig 10b, Bcl2-v5, venetoclax 100 nM
# [10] = Supp Fig 10b, Bcl2-v5, venetoclax 316 nM
# [11] = Supp Fig 10b, Bcl2-v5, venetoclax 1000 nM
# [12] = Supp Fig 10b, Bcl2-v5, venetoclax 3160 nM
# [13] = Supp Fig 10b, Bcl2-v5, venetoclax 10000 nM
# [14] = Supp Fig 10b, Bcl2-v6, venetoclax 1 nM
# [15] = Supp Fig 10b, Bcl2-v6, venetoclax 3.16 nM
# [16] = Supp Fig 10b, Bcl2-v6, venetoclax 10 nM
# [17] = Supp Fig 10b, Bcl2-v6, venetoclax 31.6 nM
# [18] = Supp Fig 10b, Bcl2-v6, venetoclax 100 nM
# [19] = Supp Fig 10b, Bcl2-v6, venetoclax 316 nM
# [20] = Supp Fig 10b, Bcl2-v6, venetoclax 1000 nM
# [21] = Supp Fig 10b, Bcl2-v6, venetoclax 3160 nM
# [22] = Supp Fig 10b, Bcl2-v6, venetoclax 10000 nM
# [23] = Supp Fig 10b, Bcl2, venetoclax 1 nM
# [24] = Supp Fig 10b, Bcl2, venetoclax 3.16 nM
# [25] = Supp Fig 10b, Bcl2, venetoclax 10 nM
# [26] = Supp Fig 10b, Bcl2, venetoclax 31.6 nM
# [27] = Supp Fig 10b, Bcl2, venetoclax 100 nM
# [28] = Supp Fig 10b, Bcl2, venetoclax 316 nM
# [29] = Supp Fig 10b, Bcl2, venetoclax 1000 nM
# [30] = Supp Fig 10b, Bcl2, venetoclax 3160 nM
# [31] = Supp Fig 10b, Bcl2, venetoclax 10000 nM
# [32] = Supp Fig 10c, Bcl2-v1, venetoclax 1 nM
# [33] = Supp Fig 10c, Bcl2-v1, venetoclax 3.16 nM
# [34] = Supp Fig 10c, Bcl2-v2, venetoclax 1 nM
# [35] = Supp Fig 10c, Bcl2-v2, venetoclax 3.16 nM
compound,measurement,setting,value
CC1(C)CCC(CN2CCN(c3ccc(C(=O)NS(=O)(=O)c4ccc(NCC5CCOCC5)c([N+](=O)[O-])c4)c(Oc4cnc5[nH]ccc5c4)c3)CC2)=C(c2ccc(Cl)cc2)C1 [Venetoclax],SEAP normalized (max=100),"Supp Fig 10b, Bcl2-v4, venetoclax 100 nM",78.5961
same,SEAP,[1],14.4979
same,SEAP normalized (max=100),[1],43.8128
same,SEAP,[2],9.936
same,SEAP normalized (max=100),[2],30.0279
same,SEAP,[3],8.423
same,SEAP normalized (max=100),[3],25.4557
same,SEAP,[4],7.624
same,SEAP normalized (max=100),[4],23.0384
same,SEAP,[5],45.7217
same,SEAP normalized (max=100),[5],92.4038
same,SEAP,[6],49.4803
same,SEAP normalized (max=100),[6],100
same,SEAP,[7],40.0805
same,SEAP normalized (max=100),[7],81.0029
same,SEAP,[8],46.2116
same,SEAP normalized (max=100),[8],93.3938
same,SEAP,[9],42.8958
same,SEAP normalized (max=100),[9],86.6926
same,SEAP,[10],30.6164
same,SEAP normalized (max=100),[10],61.8759
same,SEAP,[11],14.0666
same,SEAP normalized (max=100),[11],28.4288
same,SEAP,[12],10.2265
same,SEAP normalized (max=100),[12],20.6679
same,SEAP,[13],6.4792
same,SEAP normalized (max=100),[13],13.0945
same,SEAP,[14],50.15
same,SEAP normalized (max=100),[14],13.184
same,SEAP,[15],55.0335
same,SEAP normalized (max=100),[15],14.4678
same,SEAP,[16],53.9332
same,SEAP normalized (max=100),[16],14.1785
same,SEAP,[17],141.748
same,SEAP normalized (max=100),[17],37.2641
same,SEAP,[18],380.387
same,SEAP normalized (max=100),[18],100
same,SEAP,[19],330.205
same,SEAP normalized (max=100),[19],86.8077
same,SEAP,[20],170.706
same,SEAP normalized (max=100),[20],44.877
same,SEAP,[21],26.4901
same,SEAP normalized (max=100),[21],6.964
same,SEAP,[22],10.3289
same,SEAP normalized (max=100),[22],2.715
same,SEAP,[23],34.2584
same,SEAP normalized (max=100),[23],5.865
same,SEAP,[24],39.5038
same,SEAP normalized (max=100),[24],6.763
same,SEAP,[25],88.7679
same,SEAP normalized (max=100),[25],15.1973
same,SEAP,[26],235.479
same,SEAP normalized (max=100),[26],40.3146
same,SEAP,[27],448.604
same,SEAP normalized (max=100),[27],76.8023
same,SEAP,[28],584.102
same,SEAP normalized (max=100),[28],100
same,SEAP,[29],347.384
same,SEAP normalized (max=100),[29],59.4733
same,SEAP,[30],20.111
same,SEAP normalized (max=100),[30],3.443
same,SEAP,[31],12.4887
same,SEAP normalized (max=100),[31],2.138
same,SEAP,[32],26.1238
same,SEAP normalized (max=100),[32],100
same,SEAP,[33],24.5196
same,SEAP normalized (max=100),[33],93.8591
same,SEAP,[34],41.9684
same,SEAP normalized (max=100),[34],37.8578
same,SEAP,[35],39.8265
same,SEAP normalized (max=100),[35],35.9258
same,SEAP,"Supp Fig 10c, Bcl2-v3, venetoclax 1 nM",35.0656
